IC50 data for 17 compounds are collected here from patent US20260265262A1, “CDK2 INHIBITORS AND METHODS OF USING THE SAME” (Cedilla Therapeutics, Inc., priority 2022, published 2026).

One experiment concerns Kuramochi cells. In words: IncuCyte cell proliferation assay. It is filed as cell-based. Particulars: Kuramochi cells labeled with mApple-H2B, cell count 0 to 72 hours, 20 μM top concentration; read-out: IncuCyte Kuramochi RB-WT: IC50. In short, it runs like this:
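Kuramochi cells expressing mApple-H2B were treated with a 10-point, ½-log dilution series (top 20 μM). Fluorescent nuclei were counted by IncuCyte imaging at 0 and 72 h. The fold change in cell count was normalized to DMSO wells and fitted to dose-response curves to give […].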

Experiment [1] concerns the target T1, CDK2/Cyclin E1 (Homo sapiens, UniProt P24941). In words: ADP-Glo Luminescent Kinase Assay (CDK2/E1-37C). Particulars: 0.18 nM CDK2/Cyclin E1, 100 μM ATP, 1.5 μM Histone H1, 37° C., 60 min pre-incubation; read-out: ADPGLO (CDK2/E1-37C): IC50. It is filed as biochemical. The method in brief: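 Human CDK2/Cyclin E1 preincubated with inhibitor 60 min at 37 °C, then reacted 90 min at 37 °C with final 0.18 nM enzyme, 100 μM ATP, 1.5 μM Histone H1 in HEPES pH 7.5 buffer. ADP formed read by ADP-Glo luminescence; IC50 from four-parameter fit.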

Experiment [2] concerns the target T1, CDK2/Cyclin E1. Kind of experiment: CDK2/Cyclin E1 Caliper LabChip EZ Reader mobility shift assay. In kind it is biochemical. Particulars: 2.5 nM CDK2/Cyclin E1, 100 μM ATP, 1.5 μM fluorescent peptide, 30 min pre-incubation; read-out: Caliper Assay (CDK2/CCNE1): IC50. As for the experimental part: Inhibition of CDK2/Cyclin E1 activity in the presence of compounds of the present disclosure was evaluated using a CaliperLabChip® EZ Reader mobility shift assay. In the assay, CDK2/Cyclin E1 (Eurofins, 14-475) catalyzed the phosphorylation of a fluorescently tagged peptide 5-FAM-QSPKKG-CONH2 (PerkinEliner, FL Peptide 18) which induced a difference in capillary electrophoresis mobility. The peptide substrate and product were measured, and the conversion ratio was used to determine the inhibition (as % activity and IC50 values) of CDK2/Cyclin E1. Reactions contained 50 mM HEPES pH 7.5, 10 mM MgCl2, 1 mM EDTA, 2 mM DTT, 0.01% Brij35, 0.5 mg/mL BSA, 0.1% DMSO, 2.5 nM CDK2/Cyclin E1, 100 μM ATP, and 1.5 μM fluorescent peptide substrate.
Dose titrations of inhibitors in 100% DMSO were combined with 3.25 nM CDK2/Cyclin E1 and 130 μM of ATP in reaction buffer. The mixtures were incubated for 30 minutes before the addition of fluorescent peptide substrate to initiate the kinase reaction. The final conditions were 2.5 nM CDK2/Cyclin E1, 100 μM ATP, and 1.5 μM fluorescent peptide. The reactions were stopped after 100 minutes with the addition of EDTA (400 mM final EDTA concentration). The stopped reactions were analyzed on a Caliper LabChip® EZ Reader II. The conversion ratios were normalized to yield % activity, plotted against compound concentration, and fit to a four-parameter equation to determine the IC50 for each compound.

Turning to `COC(=O)C1(CNC(=O)[C@@H](NC(=O)[C@@H]2CN(C(=O)c3cnn(Cc4ccccc4)c3)CC23CN(C(=O)[C@H]2CC2(C)C)C3)[C@@H](C)OCC2CCCCC2)CC1` [Example I-39], the IC50 in the experiment with Kuramochi cells is less than 500 nM; at CDK2/Cyclin E1 [1] it was less than 500 nM; at CDK2/Cyclin E1 [2], less than 10 nM.

For `C[C@@H](OCC1CCCCC1)[C@H](NC(=O)[C@@H]1CN(C(=O)c2cnn(Cc3ccccc3)c2)CC12CN(C(=O)[C@H]1CC1(C)C)C2)C(=O)N1CCC(c2ccc(C(=O)O)cc2)CC1` [Example I-45], the IC50 with Kuramochi cells was 500 to 5000 nM; on CDK2/Cyclin E1 [1] it was less than 500 nM; at CDK2/Cyclin E1 [2], less than 10 nM.

For `CNC(=O)[C@@H](NC(=O)[C@@H]1CN(C(=O)c2cncs2)CC12CN(CC1CCCO1)C2)[C@@H](C)OCC1(CO)CC=CCC1` (stereo partly drawn) [Example I-49], the IC50 in the experiment with Kuramochi cells is more than 20000 nM; on CDK2/Cyclin E1 [1], more than 10000 nM; on CDK2/Cyclin E1 [2], 100 to 1000 nM.

Turning to `COC(=O)[C@@H]1CCCCN1C(=O)[C@@H](NC(=O)[C@@H]1CN(C(=O)c2cnn(Cc3ccccc3)c2)CC12CN(C(=O)[C@H]1CC1(C)C)C2)[C@@H](C)OCC1CCCCC1` [Example I-38], the results for the IC50 in the experiment with Kuramochi cells, at CDK2/Cyclin E1 [1] and at CDK2/Cyclin E1 [2] were less than 500 nM, less than 500 nM and less than 10 nM, respectively.

As for `C[C@@H](OCC1(CO)CC=CCC1)C(NC(=O)[C@@H]1CN(C(=O)c2cnco2)CC12CN(C(=O)C(C)(C)C1CC1)C2)C(C)(C)O` (single isomer, unassigned) [Example I-57], the IC50 is more than 20000 nM in the experiment with Kuramochi cells and 100 to 1000 nM on CDK2/Cyclin E1 [2].

For the compound `CNC(=O)C(NC(=O)[C@@H]1CN(C(=O)c2cncs2)CC12CN(CC1CCCO1)C2)[C@@H](C)OCC12CCC(CC1)OC2` (stereo partly drawn) [Example I-59, (8S)—N-((3R)-3-((2-oxabicyclo[2.2.2]octan-4-yl)methoxy)-1-(methylamino)-1-oxobutan-2-yl)-2-((tetrahydrofuran-2-yl)methyl)-6-(thiazole-5-carbonyl)-2,6-diazaspiro[3.4]octane-8-carboxamide], the IC50 in the experiment on Kuramochi cells was in the range of 5000 to 20000 nM; at CDK2/Cyclin E1 [2], 100 to 1000 nM.

As for `COC[C@H]1CCCN(C(=O)[C@@H](NC(=O)[C@H]2CN(C(=O)c3cncs3)CC23CN(C(=O)[C@H]2CC2(C)C)C3)[C@@H](C)OCC2CCCCC2)C1` [Example I-116, (R)—N-((2S,3R)-3-(cyclohexylmethoxy)-1-((S)-3-(methoxymethyl)piperidin-1-yl)-1-oxobutan-2-yl)-2-((S)-2,2-dimethylcyclopropanecarbonyl)-6-(thiazole-5-carbonyl)-2,6-diazaspiro[3.4]octane-8-carboxamide], the IC50 in the experiment with Kuramochi cells lay in the range of 5000 to 20000 nM; on CDK2/Cyclin E1 [2], 100 to 1000 nM.

For `C[C@@H](OCC1CCCCC1)[C@H](NC(=O)[C@@H]1CN(C(=O)c2cnn(Cc3ccccc3)c2)CC12CN(C(=O)[C@H]1CC1(C)C)C2)C(=O)N1CCC[C@@H](C(=O)O)C1` [Example I-46], the IC50 with Kuramochi cells is more than 20000 nM; at CDK2/Cyclin E1 [1], less than 500 nM; at CDK2/Cyclin E1 [2], less than 10 nM.

With `C[C@@H](OCC12CCC(CC1)OC2)[C@H](NC(=O)[C@@H]1CN(C(=O)c2cncs2)CC12CN(CC1CCCO1)C2)C(=O)N1CCC(c2nccs2)CC1` (stereo partly drawn) [Example I-44, (8S)—N-((2S,3R)-3-((2-oxabicyclo[2.2.2]octan-4-yl)methoxy)-1-oxo-1-(4-(thiazol-2-yl)piperidin-1-yl)butan-2-yl)-2-((tetrahydrofuran-2-yl)methyl)-6-(thiazole-5-carbonyl)-2,6-diazaspiro[3.4]octane-8-carboxamide], the results for the IC50 with Kuramochi cells, on CDK2/Cyclin E1 [1] and on CDK2/Cyclin E1 [2] were more than 20000 nM, more than 100000 nM and more than 10000 nM, respectively.

Regarding `CCOC(=O)C(F)(F)CNC(=O)[C@@H](NC(=O)[C@@H]1CN(C(=O)c2cnn(Cc3ccccc3)c2)CC12CN(C(=O)[C@H]1CC1(C)C)C2)[C@@H](C)OCC1CCCCC1` [Example I-47, ethyl 3-((2S,3R)-2-((S)-6-(1-benzyl-1H-pyrazole-4-carbonyl)-2-((S)-2,2-dimethylcyclopropane-1-carbonyl)-2,6-diazaspiro[3.4]octane-8-carboxamido)-3-(cyclohexylmethoxy)butanamido)-2,2-difluoropropanoate], the figures for the IC50 with Kuramochi cells, at CDK2/Cyclin E1 [1] and on CDK2/Cyclin E1 [2] were 5000 to 20000 nM, less than 500 nM and less than 10 nM, respectively.

As for `C[C@@H](OCC1CCC2(CCC2)CC1)[C@H](NC(=O)[C@@H]1CN(C(=O)c2cnn(Cc3ccccc3)c2)CC12CN(C(=O)[C@H]1CC1(C)C)C2)C(=O)O` [Example I-40, N—((S)-6-(1-benzyl-1H-pyrazole-4-carbonyl)-2-((S)-2,2-dimethylcyclopropane-1-carbonyl)-2,6-diazaspiro[3.4]octane-8-carbonyl)-O-(spiro[3.5]nonan-7-ylmethyl)-L-threonine], the IC50 is more than 20000 nM in the experiment on Kuramochi cells, less than 500 nM at CDK2/Cyclin E1 [1] and less than 10 nM at CDK2/Cyclin E1 [2].

As to `Cc1nc(C)c(C(=O)N2C[C@@H](C(=O)N[C@H](C(=O)N3CCC(OC(F)(F)F)CC3)[C@@H](C)OCC3(CO)CC=CCC3)C3(C2)CN(C(=O)[C@H]2CC2(C)C)C3)s1` (stereo in doubt) [Example I-51], the IC50 with Kuramochi cells was 500 to 5000 nM; on CDK2/Cyclin E1 [2], 10 to 100 nM.

Turning to `C[C@@H](OCC1(CO)CC=CCC1)[C@H](NC(=O)[C@@H]1CN(C(=O)c2cncs2)CC12CN(C(=O)[C@H]1CC1(C)C)C2)C(=O)N1CCC(C)(C)CC1` (stereo partly drawn) [Example I-53], the IC50 in the experiment with Kuramochi cells is less than 500 nM; at CDK2/Cyclin E1 [2], less than 10 nM.

Take `Cc1nc(C)c(C(=O)N2C[C@@H](C(=O)NC(C(=O)N3CCC(C(F)(F)F)CC3)[C@@H](C)OCC3(CO)CC=CCC3)C3(C2)CN(C(=O)[C@H]2CC2(C)C)C3)s1` (stereo partly drawn) [Example I-50, (8S)-2-((S)-2,2-dimethylcyclopropane-1-carbonyl)-6-(2,4-dimethylthiazole-5-carbonyl)-N-((2S,3R)-3-((1-(hydroxymethyl)cyclohex-3-en-1-yl)methoxy)-1-oxo-1-(4-(trifluoromethyl)piperidin-1-yl)butan-2-yl)-2,6-diazaspiro[3.4]octane-8-carboxamide]: the IC50 is 500 to 5000 nM in the experiment with Kuramochi cells and less than 10 nM at CDK2/Cyclin E1 [2].

With `COC1CCN(C(=O)[C@@H](NC(=O)[C@@H]2CN(C(=O)c3sc(C)nc3C)CC23CN(C(=O)[C@H]2CC2(C)C)C3)[C@@H](C)OCC2(CO)CC=CCC2)CC1` (stereo in doubt) [Example I-55], the IC50 in the experiment on Kuramochi cells was more than 20000 nM; on CDK2/Cyclin E1 [2] it was 10 to 100 nM.

In the case of `Cc1nc(C)c(C(=O)N2C[C@@H](C(=O)NC([C@@H](C)OCC3(CO)CC=CCC3)C(C)(C)O)C3(C2)CN(C(=O)C(C)(C)C2CC2)C3)s1` (stereo partly drawn) [Example I-56, (8S)-2-(2-cyclopropyl-2-methylpropanoyl)-6-(2,4-dimethylthiazole-5-carbonyl)-N-((4R)-2-hydroxy-4-((1-(hydroxymethyl)cyclohex-3-en-1-yl)methoxy)-2-methylpentan-3-yl)-2,6-diazaspiro[3.4]octane-8-carboxamide], the IC50 was more than 20000 nM with Kuramochi cells and 1000 to 10000 nM on CDK2/Cyclin E1 [2].

`COC1CCN(C(=O)[C@@H](NC(=O)[C@@H]2CN(C(=O)c3cncs3)CC23CN(C(=O)[C@H]2CC2(C)C)C3)[C@@H](C)OCC2(CO)CC=CCC2)CC1` (stereo in doubt) [Example I-54]: the IC50 in the experiment with Kuramochi cells was 500 to 5000 nM; at CDK2/Cyclin E1 [2], less than 10 nM.
